Measurements as given in publication PMC6895180 (Nature Communications, 2019).
Several values for one entry are separate records, joined by “and”; a condition that tells them apart may be missing. Equal entries are not always repeated.

What was measured:
[1] = Metabolic stability, mouse liver microsomes (phase I and II)
Protocol: (§1) Mouse, rat, and pooled human liver microsomes were purchased from a commercial source (Corning) and stored at -80 °C. NADPH generating system solutions A and B and UGT reaction mix solutions A and B (Corning) were kept at -20°C. The test compound and the reference compounds diclofenac (MW […]
(§2) microsomal stability assay was carried out based on the BD Biosciences Guidelines for Use (TF000017 Rev1.0) with minor adaptations. Metabolic stability of the compounds was studied through the CYP450 superfamily (phase I metabolism) by fortification with reduced nicotinamide adenine dinucleotide phosphate (NADPH) and through uridine glucuronosyl-transferase (UGT) enzymes (phase II metabolism) by fortification with uridine diphosphate glucuronic acid (UDPGA). For the CYP450 and other NADPH dependent enzymes, both compounds were incubated at 5 µM together with 0.5 mg mL-1 liver microsomes in potassium phosphate buffer in a reaction started by the addition of 1 mM NADPH […]
(§3) At these time points, 20 µL was withdrawn from the reaction mixture and 80 µL cold acetonitrile (ACN) containing the internal standard tolbutamide, was added to inactivate the enzymes and precipitate the proteins. The mixture was vortexed for 30 s and centrifuged at 4 °C for 5 min at 15,000 rpm. The supernatant was stored at -80°C until analysis. For the UGT enzymes, both compounds were incubated at 5 µM together with 0.5 mg mL-1 liver microsomes in a reaction started by the addition of 2 mM UDPGA cofactor. The corresponding loss of parent compound was determined using liquid chromatography (UPLC) (Waters AquityTM) coupled with tandem quadrupole mass spectrometry (MS²) (Waters XevoTM), equipped with an electrospray ionization (ESI) interface and operated in multiple reaction monitoring (MRM) mode. […]

[2] = Metabolic stability, rat liver microsomes (phase I and II)
Protocol: as §1, §2, §3

[3] = Metabolic stability, pooled human liver microsomes (phase I and II)
Protocol: as §1, §2, §3

[4] = target: T1, T. brucei ADKIN (Trypanosoma brucei brucei, UniProt Q584S6); assay: ADKIN assay (phosphorylation by purified recombinant enzyme, HPLC); assay type: biochemical
T1 sequence (Q584S6 1-345): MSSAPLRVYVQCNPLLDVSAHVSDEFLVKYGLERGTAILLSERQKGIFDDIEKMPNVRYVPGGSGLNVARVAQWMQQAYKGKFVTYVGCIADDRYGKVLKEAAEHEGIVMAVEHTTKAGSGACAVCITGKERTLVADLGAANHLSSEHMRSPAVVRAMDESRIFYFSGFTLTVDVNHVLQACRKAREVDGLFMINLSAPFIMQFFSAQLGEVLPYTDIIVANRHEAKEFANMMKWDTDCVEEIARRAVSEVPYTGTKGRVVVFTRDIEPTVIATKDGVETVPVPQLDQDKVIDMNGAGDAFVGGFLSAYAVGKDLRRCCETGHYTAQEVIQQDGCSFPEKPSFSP
Protocol: The T. brucei ADKIN enzyme was diluted in a buffer containing 0.05% (v/v) Tween-20, 50 mM KCl, 0.1 mM dithiothreitol, and 50 mM Tris-HCl, pH 7.5 (dilution buffer), prior to use in the assay. The final assay mixture contained 12.5 ng T. brucei ADKIN, a range between 50 and 1000 µM of nucleoside 9 (or 1000 µM deoxyadenosine in the control reaction), 100 mM KCl, 10 mM MgCl2, 0.5 mM ATP, 5 mM potassium phosphate and 50 mM Tris-HCl, pH 7.5. The assay was incubated at 37 °C for 30 min, and subsequently heated for 2 min at 100 °C to inactivate the enzyme, diluted with 2 volumes of water, centrifuged through a Nanosep 3k Omega filter and mixed 1:1:2 with water and mobile phase. The HPLC analysis was performed on a 2.1 × 150 mm ACE Excel C18 column using a mobile phase composition 4A:76B:20C (see nucleotide pool analysis, Supplementary Information for details). Using these conditions, consecutive samples could be loaded (Supplementary Fig. 12). After 4–5 samples, the column was washed with high percent A (80A:20C) to remove bound ADP and ATP before re-equilibrating the column to original conditions.

| SMILES | % parent compound remaining ([1]; CYP - NADPH, 15 min) | % parent compound remaining ([1]; CYP - NADPH, 30 min) | % parent compound remaining ([1]; CYP - NADPH, 60 min) | % parent compound remaining ([1]; UGT Enzymes, 15 min) | % parent compound remaining ([1]; UGT Enzymes, 30 min) | % parent compound remaining ([1]; UGT Enzymes, 60 min) | % parent compound remaining ([2]; CYP - NADPH, 15 min) | % parent compound remaining ([2]; CYP - NADPH, 30 min) | % parent compound remaining ([2]; CYP - NADPH, 60 min) | % parent compound remaining ([2]; UGT Enzymes, 15 min) | % parent compound remaining ([2]; UGT Enzymes, 30 min) | % parent compound remaining ([2]; UGT Enzymes, 60 min) | % parent compound remaining ([3]; CYP - NADPH, 15 min) | % parent compound remaining ([3]; CYP - NADPH, 30 min) | % parent compound remaining ([3]; CYP - NADPH, 60 min) | % parent compound remaining ([3]; UGT Enzymes, 15 min) | % parent compound remaining ([3]; UGT Enzymes, 30 min) | % parent compound remaining ([3]; UGT Enzymes, 60 min) | product concentration (Conc.9-MP) ([4]; TbAK control reaction, [dAdo] 1000 µM) | Act (U/mg) ([4]; TbAK, substrate 1000 µM) |
| --- | --- | --- | --- | --- | --- | --- | --- | --- | --- | --- | --- | --- | --- | --- | --- | --- | --- | --- | --- | --- |
| OC(Cn1cncn1)(Cn1cncn1)c1ccc(F)cc1F [Fluco, fluconazole, reference compound] | 111±12% | 93±19% | 100±12% | 99±19% | 104±3% | 100±6% | 110% | 104% | 96% | 111% | 105% | 112% | 110% | 80% | 103% | 103% | 116% | 106% |  |  |
| Nc1ncnc2c1ncn2[C@H]1C[C@H](O)[C@@H](CO)O1 [dAdo, 2′-deoxyadenosine, reference compound] |  |  |  |  |  |  |  |  |  |  |  |  |  |  |  |  |  |  | 34.4568 and 29.4118 and 31.8858 | 4.594 U/mg and 3.922 U/mg and 4.251 U/mg |
| O=C(O)Cc1ccccc1Nc1c(Cl)cccc1Cl [Diclo, diclofenac, reference compound] | 83±14% | 67±5.7% | 52±0.3% | 42±21% | 46±10% | 34±9% | 59±9% | 39±2.6% | 10±2.9% | 28±4.5% | 14±1.5% | 11±0.9% | 35±0.4% | 14±0.8% | 2±0.4% | 17±1.1% | 14±0.7% | 10±0.1% |  |  |
